What was measured:
Assay type in all cases: binding
KRAS G12D = biological target: T1, KRAS G12D (Homo sapiens, UniProt P01116, G12D); test: HTRF assay, interaction of KRAS G12D with SOS1; conditions: Ras::SOS1 interaction, read-out: Inhibition of KRAS G12D (IC50)
T1 construct: made in house; host or cells: E. coli, e.g. BL21 (DE3)
Source text: (§1) This assay can be also used to assess a selective inhibition or reduction of signaling output of a mutant Ras protein relative to a wildtype, or relative to a different mutant Ras protein. For example, the equilibrium interaction of wildtype Kras or K-Ras mutant (e.g., wildtype or a mutant thereof) with SOS1 (e.g., hSOS1) can be assessed as a proxy or an indication for a subject compound's ability to bind and inhibit Ras protein. The HTRF assay detects from (i) a fluorescence resonance energy transfer (FRET) donor (e.g., antiGST-Europium) that is bound to GST-tagged K-Ras mutant to (ii) a FRET acceptor (e.g., anti-6His-XL665) bound to a His-tagged hSOS1.
(§2) The assay buffer can contain ˜5 mM HEPES pH 7.4, ˜150 mM NaCl, ˜ 1 mM DTT, 0.05% BSA and 0.0025% (v/v) Igepal. A Ras working solution is prepared in an assay buffer containing typically a suitable amount of the protein construct (e.g., GST-tagged K-Ras mutant) and the FRET donor (e.g., antiGST-Eu(K) from Cisbio, France). A SOS1 working solution is prepared in an assay buffer containing suitable amount of the protein construct (e.g., His-hSOS1) and the FRET acceptor (e.g., anti-6His-XL665 from Cisbio, France). A suitable amount of the protein construct will depend on the range of activity or range of IC50 values being detected or under investigation. For detecting an IC50 within a range of 500 nM, the protein constructs of the same range of molarity can be utilized.
(§3) A fixed volume of DMSO with or without test compound is transferred into a 384-well plate. Ras working solution is added to all wells of the test plate. SOS1 working solution is added to all wells except for those that are subsequently filled with inhibitor control solution. Upon incubation for about 10 minutes or longer, the fluorescence is measured with a M1000Pro plate reader (Tecan) using HTRF detection (excitation 337 nm, emission 1: 620 nm, emission 2: 665 nm). Compounds are tested in duplicate at different concentrations (for example, 10 μM, 2.5 μM, 0.63 μM, 0.16 μM, 0.04 μM, 0.01 μM test compound). The ratiometric data (i.e., emission 2 divided by emission 1) is used to calculate IC50 values against Ras using GraphPad Prism (GraphPad software). Signaling output measured in terms of IC50 values can be obtained and a ratio of IC50 against one mutant relative to another mutant can be calculated. For instance, a selective reduction of K-Ras G12D signaling output can be evidenced by a ratio greater than one. In particular, a selective reduction of K-Ras G12D signaling relative to K-Ras WT signaling is evidenced if the ratio of IC50 (against K-Ras WT) to IC50 (against K-Ras G12D) is greater than 1.

KRAS G12V = biological target: T2, KRAS G12V (Homo sapiens, UniProt P01116, G12V); test: HTRF assay, interaction of KRAS G12V with SOS1; conditions: Ras::SOS1 interaction, read-out: Inhibition of KRAS G12V (IC50)
T2 construct: made in house; host or cells: E. coli, e.g. BL21 (DE3)
Source text: as §1, §2, §3

wildtype KRAS = biological target: T3, wildtype KRAS (Homo sapiens, UniProt P01116); test: HTRF assay, interaction of wildtype KRAS with SOS1; conditions: Ras::SOS1 interaction, read-out: Inhibition of KRAS WT (IC50)
T3 construct: made in house; host or cells: E. coli, e.g. BL21 (DE3)
Source text: as §1, §2, §3

T1 sequence (P01116 1-188 isoform P01116-2 G12D): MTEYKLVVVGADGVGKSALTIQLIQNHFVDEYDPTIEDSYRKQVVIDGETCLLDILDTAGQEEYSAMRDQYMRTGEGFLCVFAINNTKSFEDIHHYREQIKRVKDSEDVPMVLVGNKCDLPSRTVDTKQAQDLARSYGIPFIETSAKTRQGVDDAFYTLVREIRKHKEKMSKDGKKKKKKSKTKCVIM
T2 sequence (P01116 1-188 isoform P01116-2 G12V): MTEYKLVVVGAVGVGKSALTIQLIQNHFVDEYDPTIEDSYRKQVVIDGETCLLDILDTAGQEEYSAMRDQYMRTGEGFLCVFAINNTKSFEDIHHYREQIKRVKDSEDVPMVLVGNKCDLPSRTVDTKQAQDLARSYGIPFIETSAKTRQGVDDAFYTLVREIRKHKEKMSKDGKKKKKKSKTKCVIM
T3 sequence (P01116 1-188 isoform P01116-2): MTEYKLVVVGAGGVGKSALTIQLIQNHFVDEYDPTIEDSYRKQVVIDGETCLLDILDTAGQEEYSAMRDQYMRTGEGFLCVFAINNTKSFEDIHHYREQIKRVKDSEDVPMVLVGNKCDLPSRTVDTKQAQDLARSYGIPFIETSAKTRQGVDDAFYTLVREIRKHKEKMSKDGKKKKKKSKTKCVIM

IC50 (KRAS G12D)	IC50 (KRAS G12V)	IC50 (wildtype KRAS)	Compound
≤ 5 µM	≤ 5 µM	≤ 5 µM	CN(C)CC1CCCCCN2c3nc(nc4c(F)c(-c5ccc(F)c6sc(N)c(C#N)c56)c(Cl)c(c34)OC[C@@H]2C(F)F)O1 (stereo partly drawn) [Compound 156, 2-amino-4-((11R)-14-chloro-11-(difluoromethyl)-4-((dimethylamino)methyl)-16-fluoro-4,5,6,7,8,9,11,12-octahydro-2,17-(azeno)benzo[6,7][1,4]oxazepino[5,4-d][1]oxa[3,5]diazacycloundecin-15-yl)-7-fluorobenzo[b]thiophene-3-carbonitrile]
≤ 5 µM	≤ 5 µM	≤ 5 µM	CNCC1CCCCCCN2CCOc3c(Cl)c(-c4ccc(F)c5sc(N)c(C#N)c45)c(F)c4nc(nc2c34)O1 (stereo not drawn) [Compound 157, 2-amino-4-(15-chloro-17-fluoro-4-((methylamino)methyl)-5,6,7,8,9,10,12,13-octahydro-4H-2,18-(azeno)benzo[6,7][1,4]oxazepino[5,4-d][1]oxa[3,5]diazacyclododecin-16-yl)-7-fluorobenzo[b]thiophene-3-carbonitrile]
≤ 5 µM	≤ 5 µM	≤ 5 µM	CN(C)CC1CCNC(=O)CN2CCOc3c(Cl)c(-c4ccc(F)c5sc(N)c(C#N)c45)c(F)c4nc(nc2c34)O1 (stereo not drawn) [Compound 158, 2-amino-4-(14-chloro-4-((dimethylamino)methyl)-16-fluoro-8-oxo-4,5,6,7,8,9,11,12-octahydro-2,17-(azeno)benzo[6,7][1,4]oxazepino[5,4-d][1]oxa[3,5,8]triazacycloundecin-15-yl)-7-fluorobenzo[b]thiophene-3-carbonitrile]
≤ 5 µM	≤ 5 µM	≤ 5 µM	CN1CCC[C@H]1[C@@H]1CC/C=C\CCN2CCOc3c(Cl)c(-c4ccc(F)c5sc(N)c(C#N)c45)c(F)c4nc(nc2c34)O1 [Compound 159, 2-amino-4-((4S,Z)-15-chloro-17-fluoro-4-((S)-1-methylpyrrolidin-2-yl)-5,6,9,10,12,13-hexahydro-4H-2,18-(azeno)benzo[6,7][1,4]oxazepino[5,4-d][1]oxa[3,5]diazacyclododecin-16-yl)-7-fluorobenzo[b]thiophene-3-carbonitrile]

Source: US20240270736A1, “MACROCYCLIC HETEROCYCLES AND USES THEREOF” (Kumquat Biosciences Inc., priority 2022, published 2024)
